Reference: publication PMC10400562, “Label-free measurement of antimicrobial peptide interactions with lipid vesicles and nanodiscs using microscale thermophoresis” (Scientific Reports, 2023)
Non-standard residues stand in square brackets, D forms with d. Residues, ends and D or L forms follow the SMILES beside them.

Assays:
E. coli ATCC 25922 = assay type: cell-based; conditions: for E. coli MIC (ATCC 25922): ATCC 25922, 24 h
Method: The bacterial strains used were E. coli ATCC 25922 and S. aureus ATCC 9144. Overnight cultures and MIC assays were performed in cationic-adjusted BD BBL Mueller Hinton II Broth (MHB II, 212322, Becton, Dickson and Company, Sparks, MD, USA).
The MICs for 1–5 were determined using the CLSI M07-A9 guidelines. Working solutions were prepared in double distilled water containing max. 1% DMSO. A concentration range between 256–0.25 µg/mL was tested for each peptide. The bacterial inoculum was 1 × 10^6 cells/mL and incubated 1:1 with each test compound in a polypropylene 96-well round-bottom plate (655209, Greiner Bio-One, Kresmmuenster, Austria). Each MIC test was performed in three biological replicates, consisting of four technical replicates. Positive controls (without antibiotics) and negative controls (without bacteria) were included for each technical replicate. The reference antibiotic erythromycin was included to assure quality control. The plates were incubated for 24 h at 37 °C. The MIC value was defined as the lowest concentration of compound resulting in no visible bacterial growth.

[1] = Label-free MST, peptide binding to SMA-QA nanodiscs; conditions: for Kd: label-free MST, SMA-QA nanodiscs (cationic belt), 2500 nM AMP, Hill fit, mean ± SD of triplicates, '>' = minimum value; for SMA-QA KP, DMPC (MST) / SMA-QA KP, DMPC/PG (MST): partition coefficient from initial fluorescence on MST instrument, SMA-QA nanodiscs, hyperbolic fit, ± SD of triplicate fits
Method: (§1) The MST data for two nanodisc types, SMA and SMA-QA, were evaluated using the same methodology as the vesicle data, with FHot taken during the TRIC, and Fnorm plotted against log[lipid] and fit to Eq. (6).
(§2) The DMPC, and DMPC with 5% DMPG 21 mM vesicle stocks were used for the nanodisc preparation. The stocks were combined with an 8% SMA stock solution to yield a final SMA concentration of 1% for SMA nanodiscs. The stocks were combined with a 100 mg/mL SMA-QA stock to yield a final lipid:SMA-QA w/w ratio of 1:1.5. The combined SMA/SMA-QA and lipid mixture were incubated at room temperature overnight and purified by SEC. Fractions containing SMA/SMA-QA discs were concentrated using centrifugation filters. Total lipid concentration was determined by ^31P NMR (Figs. S4–S7). Nanodisc size was confirmed using a Malvern Zetasizer Nano ZS (Malvern Panalytical Ltd, Malvern, United Kingdom).
(§3) All MST measurements were conducted on a NanoTemper Monolith NT. Labelfree instrument, using Monolith NT. Labelfree standard treated zero background capillaries.
(§4) A dilution series of vesicles/nanodiscs was prepared from 3 mM to 100 nM lipid concentrations, comprising 15 discrete samples, and an additional zero lipid sample, for a total of 16 lipid concentrations. Final MST samples were prepared as a combination of 25 µL lipid solution and 25 µL 5 µM peptide solution (Table S1 in the Supporting Information).
(§5) MST measurements were conducted with excitation power set to 15%, with the MST power set to high. Laser time settings were: 3 s pre-laser, 30 s on time, and 3 s after heating. FHot was taken from the T-jump period after 1.5 s and FCold taken in the second prior to IR laser activation. For the evaluation of KP, the initial fluorescence was taken as the value reported during the period before the application of the laser. The MST response and initial fluorescence were extracted directly as a text file for further processing in MATLAB.
(§6) In a typical binding experiment that yields a sigmoidal curve, the Hill equation can be fitted to yield KD:[66]6 y=y0+EMaxLipid^n/KDn+Lipid^n where y is the MST response, y0 is the MST response of the AMP in an aqueous solution (i.e., in the absence of lipids), n is the Hill coefficient, and EMax is the maximal effect of the tested substrate. The removal of outlying MST response points was necessary. Erroneous points were identified by poor MST trace shapes or higher than expected initial fluorescence that was absent in the other replicates or subsequent points, but otherwise no further treatment of data was necessary. In all instances the MST response was plotted against log lipid concentration in nM and fit to Eq. (6).
(§7) The Kp of a molecule can be determined experimentally by observing changes in fluorescent intensity in the presence of an increasing concentration of lipid, and fitting to Eq. (8)[43].8 I/Iaq=1+KpVmLipidIL/Iaq/1+KPVmLipid
(§8) In Eq. (8) the fluorescence intensity of the AMP (I) is normalised to the fluorescence intensity of the AMP in an aqueous environment (Iaq), Vm is the molar volume of the lipids and IL is the fluorescence intensity of the AMP in the lipidic environment. For Vm, the average molar volume of the lipid composition is used. In the case of the DMPC only environments it is taken as the Vm of DMPC (1.023 nm^3), and in the DMPC-DMPG mixture it is the weighted average relative to the composition used (Vm DMPG = 0.997 nm^3)[54].

SPR; KP from the fits = conditions: buffer
[2] = Label-free MST, peptide binding to SMA nanodiscs; conditions: for Kd: label-free MST, SMA nanodiscs (anionic belt), 2500 nM AMP, apparent KD dominated by interaction with SMA polymer, mean ± SD of triplicates; for SMA KP, DMPC (MST) / SMA KP, DMPC/PG (MST): partition coefficient from initial fluorescence on MST instrument, SMA nanodiscs, hyperbolic fit, ± SD of triplicate fits
Method: as §1, §2, §3, §4, §5, §6, §7, §8

[3] = Vesicle; KP from the fits; conditions: buffer
[4] = Label-free MST, peptide binding to 100 nm vesicles; conditions: 2500 nM AMP; for Kd: label-free MST (Trp fluorescence), lipid 0–1.5 mM, 10 mM TRIS pH 7.4 100 mM NaCl, mean ± SD of triplicates, '>' = minimum value; for Vesicle KP, DMPC (MST) / Vesicle KP, DMPC/PG (MST): partition coefficient from initial fluorescence on MST instrument, TRIS pH 7.4, ± SD of triplicate fits, judged unreliable by authors; for Vesicle KP, DMPC (MST): hyperbolic fit after removal of deviant points; for Vesicle KP, DMPC/PG (MST): hyperbolic fit
Source text: For KD evaluation by MST, FHot was registered during the temperature related intensity change (TRIC) phase of the MST trace (see “Methods”). The advantage of evaluating KD during the TRIC phase is that any potential effects of prolonged heating on the thermostability of the sample that may influence the binding can be avoided. The dose–response profile of MST response against lipid concentration for 1–5 largely follows a sigmoidal curve shape (Fig. 3A,B).
DMPC and DMPC:5% DMPG vesicles were prepared by solubilising a known weight of lipid in chloroform with a small amount of methanol to assist in the dissolution of the PG lipid head groups. The chloroform stock was dried in vacuo to produce a lipid film, which was further dried for additional 3 h. The lipid film was solubilised in 10 mM TRIS buffer (pH 7.4) containing 100 mM NaCl to yield a 20 mM milky lipid stock.
To produce the working vesicle stock, 1 mL of vesicle stock was extruded 20 times through a 0.1 µm filter using an Avanti Lipids mini-extruder. Vesicle size was confirmed using a Malvern Zetasizer Nano ZS (Malvern Panalytical Ltd, Malvern, United Kingdom).
as §3, §4, §5, §6, §7, §8

[5] = read-out: SMA-QA KD, DMPC (MST)
[6] = read-out: SMA-QA KD, DMPC/PG (MST)
[7] = read-out: SMA KD, DMPC/PG (MST)
[8] = Hill fit of Fnorm in TRIC phase, insufficient curve sampling, read-out: Vesicle KD, DMPC (MST)
[9] = Hill fit, read-out: Vesicle KD, DMPC/PG (MST)

Row | Compound | E. coli MIC (ATCC 25922) (E. coli ATCC 25922) | Kd [1, 5] | Kd [1, 6] | SMA-QA KP, DMPC (MST) [1] | SMA-QA KP, DMPC/PG (MST) [1] | membrane partition coefficient KP (KP x 10^3) (SPR; KP from the fits; DMPC bilayer on SPR chip) | membrane partition coefficient KP (KP x 10^3) (SPR; KP from the fits; DMPC/PG bilayer on SPR chip) | Kd ([2]; read-out: SMA KD, DMPC (MST)) | Kd [2, 7] | SMA KP, DMPC (MST) [2] | SMA KP, DMPC/PG (MST) [2] | membrane partition coefficient KP (KP x 10^3) ([3]; DMPC vesicles (MST)) | membrane partition coefficient KP (KP x 10^3) ([3]; DMPC/PG vesicles (MST)) | Kd [4, 8] | Kd [4, 9] | Vesicle KP, DMPC (MST) [4] | Vesicle KP, DMPC/PG (MST) [4] | antimicrobial activity against tested strain (E. coli ATCC 25922; E. coli ATCC 25922, statement in text)
1 | N=C(N)NCCC[C@@H]1NC(=O)[C@H](CCCNC(=N)N)NC(=O)[C@H](Cc2c[nH]c3ccccc23)NC(=O)[C@H](Cc2c[nH]c3ccccc23)NC(=O)[C@H](Cc2c[nH]c3ccccc23)NC(=O)[C@H](CCCNC(=N)N)NC1=O [compound 1] (cyclo(WWWRRR)) | 8 µg/mL | 142 ± 17 µM | 40 ± 5 µM | 7.07 ± 1.78 × 10^3 | 7.63 ± 1.89 × 10^3 | 6.65 ± 0.80 x10^3 | 12.71 ± 0.16 x10^3 | 1.2 ± 0.5 µM | 2.2 ± 0.4 µM | 10.40 ± 1.52 × 10^3 | 10.27 ± 2.13 × 10^3 | 7.24 ± 1.73 x10^3 | 7.73 ± 1.58 x10^3 | 21 ± 3 µM | 10 ± 5 µM | 7.24 ± 1.73 × 10^3 | 7.73 ± 1.58 × 10^3 | –
2 | N=C(N)NCCC[C@@H]1NC(=O)[C@H](Cc2c[nH]c3ccccc23)NC(=O)[C@H](CCCNC(=N)N)NC(=O)[C@H](Cc2c[nH]c3ccccc23)NC(=O)[C@H](CCCNC(=N)N)NC(=O)[C@H](Cc2c[nH]c3ccccc23)NC1=O [compound 2] (cyclo(WRWRWR)) | 32 µg/mL | > 541 µM | > 615 µM | 36.55 ± 11.82 × 10^3 | 12.62 ± 4.16 × 10^3 | 1.30 ± 0.09 x10^3 | 3.16 ± 0.15 x10^3 | 2.7 ± 0.5 µM | 5.6 ± 1.1 µM | 9.72 ± 2.69 × 10^3 | 3.57 ± 0.36 × 10^3 | 7.08 ± 2.32 x10^3 | 16.97 ± 3.83 x10^3 | 73 ± 53 µM | 24 ± 7 µM | 7.08 ± 2.32 × 10^3 | 16.97 ± 3.83 × 10^3 | –
3 | NCCCC[C@@H]1NC(=O)[C@H](CCCCN)NC(=O)[C@H](Cc2c[nH]c3ccccc23)NC(=O)[C@H](Cc2c[nH]c3ccccc23)NC(=O)[C@H](Cc2c[nH]c3ccccc23)NC(=O)[C@H](CCCCN)NC1=O [compound 3] (cyclo(WWWKKK)) | 8 µg/mL | 267 ± 47 µM | 145 ± 55 µM | 9.16 ± 2.86 × 10^3 | 4.93 ± 0.81 × 10^3 | 2.53 ± 0.08 x10^3 | 5.16 ± 0.34 x10^3 | 1.1 ± 0.3 µM | 1.1 ± 0.5 µM | 2.34 ± 1.40 × 10^3 | 4.21 ± 0.43 × 10^3 | 2.55 ± 0.89 x10^3 | 11.05 ± 4.49 x10^3 | 28 ± 3 µM | 17 ± 13 µM | 2.55 ± 0.89 × 10^3 | 11.05 ± 4.49 × 10^3 | –
4 | NCCCC[C@@H]1NC(=O)[C@H](Cc2c[nH]c3ccccc23)NC(=O)[C@H](CCCCN)NC(=O)[C@H](Cc2c[nH]c3ccccc23)NC(=O)[C@H](CCCCN)NC(=O)[C@H](Cc2c[nH]c3ccccc23)NC1=O [compound 4] (cyclo(WKWKWK)) | 64 µg/mL | > 713 µM | – | 6.15 ± 6.54 × 10^3 | 3.23 ± 1.87 × 10^3 | 0.53 ± 0.01 x10^3 | 0.63 ± 0.03 x10^3 | 8.6 ± 0.5 µM | 9.8 ± 0.3 µM | 0.70 ± 0.11 × 10^3 | 1.14 ± 0.12 × 10^3 | 8.56 ± 7.41 x10^3 | 14.90 ± 4.84 x10^3 | 282 ± 58 µM | 112 ± 29 µM | 8.56 ± 7.41 × 10^3 | 14.90 ± 4.84 × 10^3 | –
5 | CC(C)C[C@@H]1NC(=O)[C@@H](CCCNC(=N)N)NC(=O)[C@H](CCCCN)NC(=O)[C@H](CC(N)=O)NC(=O)[C@@H](Cc2c[nH]c3ccccc23)NC(=O)[C@H](Cc2c[nH]c3ccccc23)NC1=O [compound 5] (cyclo(LW[dW]NK[dR])) | > 256 µg/mL | – | > 1000 µM | 17.12 ± 12.90 × 10^3 | 3.35 ± 0.57 × 10^3 | 0.28 ± 0.01 x10^3 | – | – | – | 6.98 ± 1.24 × 10^3 | 4.75 ± 0.32 × 10^3 | 3.10 ± 2.17 x10^3 | 1.47 ± 0.07 x10^3 | > 670 µM | > 650 µM | 3.10 ± 2.17 × 10^3 | 1.47 ± 0.07 × 10^3 | inactive
